Assay results published in patent US12209102B2, “Heterocyclic compounds and uses thereof” (Kumquat Biosciences Inc., priority 2022, dated 2025).
pIC50: −log10 of the molar value.

Assays:
Format in all cases: biochemical
[1] = biological target: T1, K-Ras G12D (Homo sapiens, UniProt P01116, G12D); test: HTRF resonance energy transfer assay, K-Ras G12D / SOS1 interaction; conditions: HTRF assay of Example 5; read-out: IC50 against K-Ras G12D
T1 construct: made in house; host or cells: E. coli BL21 (DE3)
Summary of the method: (§1)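 GST-tagged K-Ras (WT or mutant) bound to anti-GST-Eu donor was mixed with His-hSOS1 bound to anti-6His-XL665 acceptor in ~5 mM HEPES pH 7.4, 150 mM NaCl, 1 mM DTT, 0.05% BSA, 0.0025% Igepal. HTRF (ex 337, em 620/665 nm) was read after ~10 min or longer. IC50 came from the 665/620 ratio over duplicates from 10 μM to 0.01 μM.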

[2] = biological target: T2, K-Ras G12V (Homo sapiens, UniProt P01116, G12V); test: HTRF resonance energy transfer assay, K-Ras G12V / SOS1 interaction; conditions: HTRF assay of Example 5; read-out: IC50 against K-Ras G12V
T2 construct: made in house; host or cells: E. coli BL21 (DE3)
Summary of the method: as §1

[3] = biological target: T3, K-Ras WT (Homo sapiens, UniProt P01116); test: HTRF resonance energy transfer assay, K-Ras WT / SOS1 interaction; conditions: HTRF assay of Example 5; read-out: IC50 against K-Ras WT
T3 construct: made in house; host or cells: E. coli BL21 (DE3)
Summary of the method: as §1

[4] = biological target: T4, K-Ras G12S (Homo sapiens, UniProt P01116, G12S); test: HTRF resonance energy transfer assay, K-Ras G12S / SOS1 interaction; conditions: HTRF assay of Example 5; read-out: IC50 against K-Ras G12S
T4 construct: made in house; host or cells: E. coli BL21 (DE3)
Summary of the method: as §1

Measured: pIC50

T4 sequence (P01116 1-188 isoform P01116-2 G12S): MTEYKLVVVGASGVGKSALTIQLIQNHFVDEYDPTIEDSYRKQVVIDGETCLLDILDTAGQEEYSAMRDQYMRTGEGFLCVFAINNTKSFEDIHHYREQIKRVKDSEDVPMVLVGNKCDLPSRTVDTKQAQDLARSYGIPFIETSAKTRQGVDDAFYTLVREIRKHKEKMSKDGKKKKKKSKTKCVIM
T1 sequence (P01116 1-188 isoform P01116-2 G12D): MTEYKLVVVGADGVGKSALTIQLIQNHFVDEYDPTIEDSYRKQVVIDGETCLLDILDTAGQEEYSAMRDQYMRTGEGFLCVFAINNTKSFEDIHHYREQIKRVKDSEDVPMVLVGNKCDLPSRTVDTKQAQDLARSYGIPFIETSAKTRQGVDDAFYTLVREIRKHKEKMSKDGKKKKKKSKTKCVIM
T3 sequence (P01116 1-188 isoform P01116-2): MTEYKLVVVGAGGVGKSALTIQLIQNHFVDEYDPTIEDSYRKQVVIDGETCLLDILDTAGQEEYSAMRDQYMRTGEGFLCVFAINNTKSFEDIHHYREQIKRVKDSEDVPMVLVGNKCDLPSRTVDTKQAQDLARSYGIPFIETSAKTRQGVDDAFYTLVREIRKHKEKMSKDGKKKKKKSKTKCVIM
T2 sequence (P01116 1-188 isoform P01116-2 G12V): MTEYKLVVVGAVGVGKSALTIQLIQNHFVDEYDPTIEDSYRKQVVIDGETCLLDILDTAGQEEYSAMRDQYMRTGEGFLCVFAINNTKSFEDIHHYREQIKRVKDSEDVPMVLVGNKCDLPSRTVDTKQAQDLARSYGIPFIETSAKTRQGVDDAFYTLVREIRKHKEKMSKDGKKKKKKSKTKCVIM

CN(CCCN1CCOc2c(Cl)c(-c3ccc(F)c4sc(N)c(C#N)c34)c(F)c3nc(OC[C@@]45CCCN4C[C@H](F)C5)nc1c23)C(=O)[C@H]1CN1 [Compound 908, (2R)-N-(3-(9-(2-amino-3-cyano-7-fluorobenzo[b]thiophen-4-yl)-8-chloro-10-fluoro-2-(((2R,7aS)-2-fluorotetrahydro-1H-pyrrolizin-7a(5H)-yl)methoxy)-5,6-dihydro-4H-[1,4]oxazepino[5,6,7-de]quinazolin-4-yl)propyl)-N-methylaziridine-2-carboxamide]
> 7.00: all assays above

N#Cc1c(N)sc2c(F)ccc(-c3c(Cl)c4c5c(nc(OC[C@@]67CCCN6C[C@H](F)C7)nc5c3F)N(C3CCOC3)C(C3(C#N)CC3)CO4)c12 (stereo partly drawn) [Compound 913, 2-amino-4-(8-chloro-5-(1-cyanocyclopropyl)-10-fluoro-2-(((2R,7aS)-2-fluorotetrahydro-1H-pyrrolizin-7a(5H)-yl)methoxy)-4-(tetrahydrofuran-3-yl)-5,6-dihydro-4H-[1,4]oxazepino[5,6,7-de]quinazolin-9-yl)-7-fluorobenzo[b]thiophene-3-carbonitrile]
> 7.00: all assays above

CNCCCN1c2nc(OC[C@@]34CCCN3C[C@H](F)C4)nc3c(F)c(-c4ccc(F)c5sc(N)c(C#N)c45)c(Cl)c(c23)OCC1CC#N (stereo partly drawn) [Compound 928, 2-amino-4-(8-chloro-5-(cyanomethyl)-10-fluoro-2-(((2R,7aS)-2-fluorotetrahydro-1H-pyrrolizin-7a(5H)-yl)methoxy)-4-(3-(methylamino)propyl)-5,6-dihydro-4H-[1,4]oxazepino[5,6,7-de]quinazolin-9-yl)-7-fluorobenzo[b]thiophene-3-carbonitrile]
> 7.00: all assays above

N#Cc1c(N)sc2c(F)ccc(-c3c(Cl)c4c5c(nc(OC[C@@]67CCCN6C[C@H](F)C7)nc5c3F)N(C3CCCCN(C(=O)C5CN5)C3)CCO4)c12 (stereo partly drawn) [Compound 934, 2-amino-4-(4-(1-(aziridine-2-carbonyl)azepan-3-yl)-8-chloro-10-fluoro-2-(((2R,7aS)-2-fluorotetrahydro-1H-pyrrolizin-7a(5H)-yl)methoxy)-5,6-dihydro-4H-[1,4]oxazepino[5,6,7-de]quinazolin-9-yl)-7-fluorobenzo[b]thiophene-3-carbonitrile]
> 7.00: all assays above

C#Cc1c(F)ccc2cc(O)cc(-c3nc4c5c(nc(OC[C@@]67CCCN6C[C@H](F)C7)nc5c3F)N(C3CCNC3)CCO4)c12 (stereo partly drawn) [Compound 939, 5-ethynyl-6-fluoro-4-(4-fluoro-2-(((2R,7aS)-2-fluorotetrahydro-1H-pyrrolizin-7a(5H)-yl)methoxy)-10-(pyrrolidin-3-yl)-9,10-dihydro-8H-7-oxa-1,3,6,10-tetraazacyclohepta[de]naphthalen-5-yl)naphthalen-2-ol]
> 7.00: all assays above

CC1Oc2c(Cl)c(-c3ccc(F)c4sc(N)c(C#N)c34)c(F)c3nc(OC[C@@]45CCCN4C[C@H](F)C5)nc(c23)N(CC(F)F)C1CC#N (stereo partly drawn) [Compound 968, 2-amino-4-(8-chloro-5-(cyanomethyl)-4-(2,2-difluoroethyl)-10-fluoro-2-(((2R,7aS)-2-fluorotetrahydro-1H-pyrrolizin-7a(5H)-yl)methoxy)-6-methyl-5,6-dihydro-4H-[1,4]oxazepino[5,6,7-de]quinazolin-9-yl)-7-fluorobenzo[b]thiophene-3-carbonitrile]
> 7.00: all assays above

CC(=O)C1COc2c(Cl)c(-c3ccc(F)c4sc(N)c(C#N)c34)c(F)c3nc(OC[C@@]45CCCN4C[C@H](F)C5)nc(c23)N1CC(F)F (stereo partly drawn) [Compound 981, 4-(5-acetyl-8-chloro-4-(2,2-difluoroethyl)-10-fluoro-2-(((2R,7aS)-2-fluorotetrahydro-1H-pyrrolizin-7a(5H)-yl)methoxy)-5,6-dihydro-4H-[1,4]oxazepino[5,6,7-de]quinazolin-9-yl)-2-amino-7-fluorobenzo[b]thiophene-3-carbonitrile]
> 7.00: all assays above

N#Cc1c(N)sc2c(F)ccc(-c3c(Cl)c4c5c(nc(OC[C@@]67CCCN6C[C@H](F)C7)nc5c3F)N(CC(F)F)C(C3CC3(F)F)CO4)c12 (stereo partly drawn) [Compound 987, 2-amino-4-(8-chloro-5-(2,2-difluorocyclopropyl)-4-(2,2-difluoroethyl)-10-fluoro-2-(((2R,7aS)-2-fluorotetrahydro-1H-pyrrolizin-7a(5H)-yl)methoxy)-5,6-dihydro-4H-[1,4]oxazepino[5,6,7-de]quinazolin-9-yl)-7-fluorobenzo[b]thiophene-3-carbonitrile]
> 7.00: all assays above

Cn1nc(NC(=O)C2CN2)cc1CN1CCOc2c(Cl)c(-c3ccc(F)c4sc(N)c(C#N)c34)c(F)c3nc(OC[C@@]45CCCN4C[C@H](F)C5)nc1c23 (stereo partly drawn) [Compound 999, N-(5-((9-(2-amino-3-cyano-7-fluorobenzo[b]thiophen-4-yl)-8-chloro-10-fluoro-2-(((2R,7aS)-2-fluorotetrahydro-1H-pyrrolizin-7a(5H)-yl)methoxy)-5,6-dihydro-4H-[1,4]oxazepino[5,6,7-de]quinazolin-4-yl)methyl)-1-methyl-1H-pyrazol-3-yl)aziridine-2-carboxamide]
> 7.00: all assays above

C[C@H]1C[C@@H](N2CCOc3c(Cl)c(-c4ccc(F)c5sc(N)c(C#N)c45)c(F)c4nc(OC[C@@]56CCCN5C[C@H](F)C6)nc2c34)CN1 [Compound 1010, 2-amino-4-(8-chloro-10-fluoro-2-(((2R,7aS)-2-fluorotetrahydro-1H-pyrrolizin-7a(5H)-yl)methoxy)-4-((3R,5S)-5-methylpyrrolidin-3-yl)-5,6-dihydro-4H-[1,4]oxazepino[5,6,7-de]quinazolin-9-yl)-7-fluorobenzo[b]thiophene-3-carbonitrile]
> 7.00: all assays above

CN1c2nc(OC[C@@]34CCCN3C[C@H](F)C4)nc3c(F)c(-c4ccc(F)c5sc(N)c(C#N)c45)c(Cl)c(c23)OC[C@@H]1CNC(=O)C(F)F [Compound 1018, N-(((5S)-9-(2-amino-3-cyano-7-fluorobenzo[b]thiophen-4-yl)-8-chloro-10-fluoro-2-(((2R,7aS)-2-fluorotetrahydro-1H-pyrrolizin-7a(5H)-yl)methoxy)-4-methyl-5,6-dihydro-4H-[1,4]oxazepino[5,6,7-de]quinazolin-5-yl)methyl)-2,2-difluoroacetamide]
> 7.00: all assays above

C#Cc1c(F)ccc2cc(O)cc(-c3nc4c5c(nc(OC[C@@]67CCCN6C[C@H](F)C7)nc5c3F)N(C3CCN(C=O)C3)CCO4)c12 (stereo partly drawn) [Compound 1019, 3-(5-(8-ethynyl-7-fluoro-3-hydroxynaphthalen-1-yl)-4-fluoro-2-(((2R,7aS)-2-fluorotetrahydro-1H-pyrrolizin-7a(5H)-yl)methoxy)-8,9-dihydro-10H-7-oxa-1,3,6,10-tetraazacyclohepta[de]naphthalen-10-yl)pyrrolidine-1-carbaldehyde]
> 7.00: all assays above

N#Cc1c(N)sc2c(F)ccc(-c3c(Cl)c4c5c(nc(OC[C@@]67CCCN6C[C@H](F)C7)nc5c3F)N(Cc3ccn[nH]3)CCO4)c12 [Compound 1023, 4-(4-((1H-pyrazol-5-yl)methyl)-8-chloro-10-fluoro-2-(((2R,7aS)-2-fluorotetrahydro-1H-pyrrolizin-7a(5H)-yl)methoxy)-5,6-dihydro-4H-[1,4]oxazepino[5,6,7-de]quinazolin-9-yl)-2-amino-7-fluorobenzo[b]thiophene-3-carbonitrile]
> 7.00: all assays above

N#CCC1COc2c(Cl)c(-c3ccc(F)c4sc(N)c(C#N)c34)c(F)c3nc(OC[C@@]45CCCN4C[C@H](F)C5)nc(c23)N1CCCN (stereo partly drawn) [Compound 1029, 2-amino-4-(4-(3-aminopropyl)-8-chloro-5-(cyanomethyl)-10-fluoro-2-(((2R,7aS)-2-fluorotetrahydro-1H-pyrrolizin-7a(5H)-yl)methoxy)-5,6-dihydro-4H-[1,4]oxazepino[5,6,7-de]quinazolin-9-yl)-7-fluorobenzo[b]thiophene-3-carbonitrile]
> 7.00: all assays above

C/C=C\[C@H]1COc2c(Cl)c(-c3ccc(F)c4sc(N)c(C#N)c34)c(F)c3nc(OC[C@@]45CCCN4C[C@H](F)C5)nc(c23)N1CC(F)F [Compound 1032, 2-amino-4-((5S)-8-chloro-4-(2,2-difluoroethyl)-10-fluoro-2-(((2R,7aS)-2-fluorotetrahydro-1H-pyrrolizin-7a(5H)-yl)methoxy)-5-((Z)-prop-1-en-1-yl)-5,6-dihydro-4H-[1,4]oxazepino[5,6,7-de]quinazolin-9-yl)-7-fluorobenzo[b]thiophene-3-carbonitrile]
> 7.00: all assays above
